Among the data in US8592395B2, “Therapeutic compounds” (GlaxoSmithKline LLC, priority 2009, dated 2013) are IC50 values, retold here.

The test system of the assay is HIV. Kind of assay: HOS assay (HOS-Luc HIV-1 LTR-luciferase reporter antiviral assay). The following applies: Human immunodeficiency virus 1, 96 h; HOS-Luc cells (HOS-CD4.CCR5 with HIV-1 LTR-luciferase reporter), four-day incubation with virus, luciferase readout. The assay is classed as cell-based. Here is the method:
HOS-Luc cells were created by introducing an HIV-1 LTR-luciferase reporter into HOS-CD4.CCR5 (NIH AIDS Research and Reference Reagents Program, cat. #3318). The cells were propagated in DMEM complete medium. Cells were split 1:20 by standard trypsinization when confluency reached 80% (roughly every 2 to 3 days).
Black-walled 96-well tissue culture plates were seeded with HOS-Luc at 6×10^3 cells per well in 50 μL DMEM containing 2% FBS and placed in a humidified incubator at 37° C., 5% CO2 overnight. The following day, test compounds were serially diluted in 4-fold increments at 2× the final concentration in DMEM+2% FBS+0.2% DMSO. Diluted compound (50 μL) was transferred to the HOS-Luc cells and the plates were placed in a humidified incubator at 37° C., 5% CO2 for 1 hr. An additional 60 μL of 2× compound was transferred to a clear-walled 96-well tissue culture plate and 60 μL of virus (diluted 1:50 in tissue culture media) was added to each well and thoroughly mixed. The virus input was previously determined by titrating the virus under assay conditions without compound and selecting a dilution that gives a response in the linear range of the curve and a signal to background of at least 30. The HIV/compound mixture (100 μL) was transferred to the black-walled plates containing 100 μL of cells/compound. The plates were placed in a humidified incubator at 37° C., 5% CO2 for four days. Following the four-day incubation, 150 μL of supernatant was removed and 50 μL of reconstituted Luclite (Promega) was added to each well. For cytotoxicity assessment, 50 μL of reconstituted CellTiter-GLo (Promega) was added to each well. Each plate was topsealed and read in a Topcount (Packard) luminometer at 1 s/well.
Raw data from the HOS-Luc assay were expressed as Relative Light Units (RLU) and normalized according to the following formula: (RLU at drug [ ]/RLU no drug)*100=% control
The potency of test compounds are reported as IC50 values derived from the four parameter Hill equation, defined as: y=Vmax*(1−(x^n/(K^n+x^n)))+Y2 Where:
y=normalized response data
Vmax=upper bound of response
Y2=lower bound or baseline of response
On to `Cc1nc2ccccc2n1[C@H]1C[C@H]2CC[C@@H](C1)N2CCC(CNS(=O)(=O)c1ccccc1)c1ccccc1` (stereo partly drawn) [Example 1, N-{4-[(1R,5S)-3-(2-methyl-1H-benzimidazol-1-yl)-8-azabicyclo[3.2.1]oct-8-yl]-2-phenylbutyl}], for which the IC50 (usually the point on the concentration scale where inhibition reaches its midpoint) fell in the range of 10 to 100 nM. For `Cc1nc2ccccc2n1[C@H]1C[C@H]2CC[C@@H](C1)N2CCC(CN(C)S(=O)(=O)c1ccccc1)c1ccccc1` (stereo partly drawn) [Example 2, N-methyl-N-{4-[(1R,5S)-3-(2-methyl-1H-benzimidazol-1-yl)-8-azabicyclo[3.2.1]oct-8-yl]-2-phenylbutyl}benzenesulfonamide] the value was < 10 nM; for `Cc1nc2ccccc2n1[C@H]1C[C@H]2CC[C@@H](C1)N2CCC(CNS(=O)(=O)c1cccc(C#N)c1)c1ccccc1` (stereo partly drawn) [Example 3, 3-cyano-N-{4-[(1R,5S)-3-(2-methyl-1H-benzimidazol-1-yl)-8-azabicyclo[3.2.1]oct-8-yl]-2-phenylbutyl}benzenesulfonamide], 10 to 100 nM; for `Cc1nc2ccccc2n1[C@H]1C[C@H]2CC[C@@H](C1)N2CCC(CNS(=O)(=O)c1ccc(C#N)cc1)c1ccccc1` (stereo partly drawn) [Example 4, 4-cyano-N-{4-[(1R,5S)-3-(2-methyl-1H-benzimidazol-1-yl)-8-azabicyclo[3.2.1]oct-8-yl]-2-phenylbutyl}benzenesulfonamide], 10 to 100 nM. The compound `Cc1nc2ccccc2n1[C@H]1C[C@H]2CC[C@@H](C1)N2CCC(CNS(C)(=O)=O)c1ccccc1` (stereo partly drawn) [Example 5, N-{4-[(1R,5S)-3-(2-methyl-1H-benzimidazol-1-yl)-8-azabicyclo[3.2.1]oct-8-yl]-2-phenylbutyl}methanesulfonamide] had an IC50 of 10 to 100 nM. With `Cc1nc2ccccc2n1[C@H]1C[C@H]2CC[C@@H](C1)N2CCC(CNS(=O)(=O)c1cccc(C(N)=O)c1)c1ccccc1` (stereo partly drawn) [Example 6, 3-[({4-[(1R,5S)-3-(2-methyl-1H-benzimidazol-1-yl)-8-azabicyclo[3.2.1]oct-8-yl]-2-phenylbutyl}amino)sulfonyl]benzamide], the half-maximal inhibitory concentration (IC50) lay in the range of 10 to 100 nM. The compound `Cc1nc2ccccc2n1[C@H]1C[C@H]2CC[C@@H](C1)N2CCC(CNS(=O)(=O)c1ccc2[nH]c(=O)oc2c1)c1ccccc1` (stereo partly drawn) [Example 7] yielded an IC50 of 10 to 100 nM. For the compound `Cc1nc2ccccc2n1C1C[C@H]2CC[C@@H](C1)N2CCC(CNS(=O)(=O)c1ccc(C(N)=O)cc1)c1ccccc1` (stereo partly drawn) [Example 8, 4-[({4-[(1R,5S)-3-(2-methyl-1H-benzimidazol-1-yl)-8-azabicyclo[3.2.1]oct-8-yl]-2-phenylbutyl}amino)sulfonyl]benzamide], the IC50 was in the range of 10 to 100 nM. `COP(=O)(NCC(CCN1[C@@H]2CC[C@H]1C[C@@H](n1c(C)nc3ccccc31)C2)c1ccccc1)OC` (stereo partly drawn) [Example 9, dimethyl{4-[(1R,5S)-3-(2-methyl-1H-benzimidazol-1-yl)-8-azabicyclo[3.2.1]oct-8-yl]-2-phenylbutyl}amidophosphate] yielded an IC50 of 10 to 100 nM. `Cc1nc2ccccc2n1[C@H]1C[C@H]2CC[C@@H](C1)N2CCC(CNS(=O)(=O)CC(F)(F)F)c1ccccc1` (stereo partly drawn) [Example 10, 2,2,2-trifluoro-N-{4-[(1R,5S)-3-(2-methyl-1H-benzimidazol-1-yl)-8-azabicyclo[3.2.1]oct-8-yl]-2-phenylbutyl}ethanesulfonamide] had an IC50 of 10 to 100 nM. Compound `Cc1nc2ccncc2n1[C@H]1C[C@H]2CC[C@@H](C1)N2CCC(CNS(=O)(=O)c1ccccc1)c1ccccc1` (stereo partly drawn) [Example 11, N-{4-[(1R,5S)-3-(2-methyl-3H-imidazo[4,5-c]pyridin-3-yl)-8-azabicyclo[3.2.1]oct-8-yl]-2-phenylbutyl}benzenesulfonamide] gave an IC50 of 10 to 100 nM.

Regarding `Cc1nc2ccccc2n1[C@H]1C[C@H]2CC[C@@H](C1)N2CCC(CNS(=O)(=O)N1CCOCC1)c1ccccc1` (stereo partly drawn) [Example 12, N-{4-[(1R,5S)-3-(2-methyl-1H-benzimidazol-1-yl)-8-azabicyclo[3.2.1]oct-8-yl]-2-phenylbutyl}-4-mopholinesulfonamide], the half-maximal inhibitory concentration (IC50) was 10 to 100 nM.
